Measured values published in US12544371B2, “Methods and compositions for treating acute lung injury and acute respiratory distress syndrome” (CalciMedica, Inc., priority 2020, dated 2026).
Where two headings read alike, the source gives them in different places.

Legend:
[1] = cited from earlier work
[2] = Phase 2 open-label study in acute pancreatitis with SIRS and hypoxemia (Compound 1 Test 201); type: in vivo, human
Protocol: A Phase 2, open-label, dose-response, multi-center study of Compound 1 was conducted in patients with AP and accompanying SIRS and hypoxemia (Compound 1 Test 201). One patient was randomized having SIRS alone at Screening. The primary objective of the study was to evaluate safety and tolerability; the secondary objective was to evaluate efficacy and the PK profile of Compound 1.
The study had 2 phases; the Initial Phase consisted of 2 concurrently enrolled cohorts and the Second Phase consisted of 2 concurrently enrolled cohorts. In total, it was planned to have 4 Cohorts containing 24 adult male and female patients with AP and accompanying SIRS and hypoxemia. In the Initial Phase, 4 female patients were to be randomized in a 3:1 ratio to receive Compound 1+Supportive Care (SC) or SC alone (Cohort 1). Concurrently, 4 male patients were to be randomized in a 3:1 ratio to receive Compound 1+SC or SC alone (Cohort 2). Doses were to be 1.0 mg/kg on Day 1 and 1.4 mg/kg daily on Days 2, 3 and 4 (low dose regimen). In the Second Phase, 8 female patients were to be randomized in a 3:1 ratio to receive Compound 1+SC or SC alone (Cohort 3). Concurrently, 8 male patients were to be randomized in a 3:1 ratio to receive Compound 1+SC or SC alone (Cohort 4). Planned doses for both Cohorts 3 and 4 were to be 2.08 mg/kg daily on Days 1 and 2 and 1.6 mg/kg daily on Days 3 and 4 (high dose regimen).
The decision to start Cohort 3 in the Second Phase was made after study personnel reviewed the available efficacy, safety and tolerability data from Cohort 1 and discussed this with the Principal Investigator (PI). […] Cohort 3, therefore, received the same dose level and schedule as Cohort 1, […] on Day 1 and 1.4 mg/kg daily on Days 2, 3 and 4. The decision to start Cohort 4 in the Second Phase of the study was made after study personnel reviewed the available efficacy, safety and tolerability data from Cohort 2 and discussed this with the Principal Investigator. Cohort 4, therefore, received the original planned dose level and schedule; 2.08 mg/kg daily on Days 1 and 2 and 1.6 mg/kg daily on Days 3 and 4.
The first infusion of Compound 1 was started within 6 (up to 8) hours of the patient or LAR providing informed consent and was administered as a continuous IV infusion over 4 hours. Subsequent infusions were to be started every 24 hours (±1 hour) from the start of the first infusion.

[3] = test system: TNFα released from human PBMCs; experiment: Cytokine released from human PBMCs: TNFα; type: cell-based
Excerpt: (§1) CRAC channels may play a proximal role in a calcium-calcineurin pathway leading to cytokine release in immune cells.

[4] = Safety pharmacology studies in rats; type: in vivo
Excerpt: Compound 1 is a non-limiting example of a composition described herein that inhibits calcium release-activated calcium (CRAC) channels).

[5] = In vivo micronucleus study (bone marrow micronucleus and liver Comet assays); settings: rats
[6] = Mouse caerulein-induced pancreatitis model; type: in vivo; settings: single IP dose
Excerpt: (§2) Potential efficacy of Compound 1 in treating acute lung injury was established in three diverse in vivo models of AP that cause both pancreatic damage and lung inflammation (TLCS-induced, FAEE-induced, and caerulein-induced acute pancreatitis models).

[7] = test system: IL-1β released from human PBMCs; experiment: Cytokine released from human PBMCs: IL-1β; type: cell-based
Excerpt: as §1

[8] = test system: IL-6 released from human PBMCs; experiment: Cytokine released from human PBMCs: IL-6; type: cell-based
Excerpt: as §1

[9] = Mouse TLCS-induced and FAEE-induced pancreatitis models; type: in vivo
Excerpt: as §2

[10] = test system: CRAC channel-dependent stimulated IL-2 secretion; experiment: Ex vivo whole blood PD assay of CRAC channel-dependent IL-2 release (Test 202); type: in vivo, human
Protocol: In Compound 1 Test 202, a pharmacodynamic and pharmacokinetic study of Compound 1 in patients with acute pancreatitis, patients with AP (regardless of the presence of SIRS and/or hypoxemia) were administered a single IV infusion of 2.08 mg/kg of an injectable emulsion of Compound 1 and blood, plasma and serum were collected for analysis. It was planned to initially enroll 5 patients and then to enroll an additional 4 patients as needed. Ultimately, 7 patients were screened for the study, and all 7 enrolled in and completed the study. On Days 1 and 2, blood and plasma samples for PD and PK analyses, respectively, were obtained 30 minutes after completing the administration of Compound 1 and 24 hours from the start of the administration of Compound 1. In patients hospitalized at Day 5 and 10, blood and plasma samples were obtained; if discharged earlier, samples were obtained at the time of discharge. After discharge, patients returned to the hospital on Day 30 to provide final blood and plasma samples.
An intravenous formulation of a CRAC inhibitor comprising Compound 1 allowed rapid delivery and onset of action when a single 2.08 mg/kg dose was given in human patients with acute pancreatitis (AP). Ex vivo whole blood pharmacodynamic (PD) assays of CRAC channel-dependent IL-2 release were performed.

Cc1cccc(F)c1C(=O)Nc1cnc(-c2cc3c(cc2Cl)OC(F)(F)O3)cn1 [Compound 1, N-(5-(6-Chloro-2,2-difluorobenzo[d][1,3]dioxol-5-yl)pyrazin-2-yl)-2-fluoro-6-methylbenzamide]
cytokine levels in serum and lung ([1]; animal models): decreases
lung inflammation in animal models ([1]; animal models): protect against lung inflammation
efficacy following i.p. injection ([1]; mice, Wen et al. 2015): effective
efficacy following 4-hour i.v. infusion ([1]; rats, Waldron et al. 2019): effective
Discharge IL-6 levels, patients with 150 pg/mL ≤ IL-6 < 1000 pg/mL ([2]; 2a High Dose Regimen + SC, admission 1): 1
Discharge IL-6 levels, patients with IL-6 ≥ 1000 pg/mL ([2]; 2a High Dose Regimen + SC, admission 2): 0
Discharge IL-6 levels, patients with IL-6 ≥ 1000 pg/mL ([2]; 2a Low Dose Regimen + SC, admission 0): 0
Discharge IL-6 levels, patients with 150 pg/mL ≤ IL-6 < 1000 pg/mL ([2]; 2a Low Dose Regimen + SC, admission 4): 0
patients in whom IL-6 levels decreased to below 150 pg/mL ([2]; Tests 201 and 202 pooled, maximum IL-6 ≥150 pg/mL in the first 24 hours): 7 of 8
procalcitonin at discharge ([2]; first critically ill AP patient): 0.24 ng/mL
IL-6 at 120 hrs ([2]; first critically ill AP patient, IL-6 >7296 pg/mL at study entry): 66 pg/mL
TEAEs with causality considered Possible (Chromaturia) ([2]; high dose regimen+SC): 1 TEAE
patients with SAEs ([2]; high dose regimen+SC, 1 of 6): 17%
patients with Acute Respiratory Distress Syndrome ([2]; high dose regimen+SC, 2 of 6): 33%
patients with Confusional State ([2]; high dose regimen+SC, 2 of 6): 33%
patients with Malnutrition ([2]; high dose regimen+SC, 2 of 6): 33%
patients with severe TEAEs ([2]; high dose regimen+SC, 2 of 6): 33%
patients with treatment-emergent AEs (TEAEs) ([2]; high dose regimen+SC, 5 of 6 patients): 83%
patients with TEAEs leading to discontinuation of the study drug ([2]; high dose regimen+SC, 3 TEAEs): 2 patients
deaths during the study ([2]; high dose regimen+SC, Hypoxic-Ischemic Encephalopathy, causality Unrelated): 1 death
IL-6 levels in patients ([2]; in vivo): marked reduction
respiratory dysfunction in patients ([2]; in vivo): beneficial effects
safety in critically ill patients ([2]; intravenous, 90 days in patients with AP, SIRS plus hypoxemia): safe
changes in vital signs, oxygenation, and laboratory values ([2]; low dose or high dose regimen): no untoward changes
safety and tolerability ([2]; low dose regimen+SC and high dose regimen+SC): well tolerated
patients with severe TEAEs ([2]; low dose regimen+SC, 0 of 8): 0%
patients with Headache ([2]; low dose regimen+SC, 2 of 8): 25%
patients with Hypokalemia ([2]; low dose regimen+SC, 2 of 8): 25%
patients with SAEs ([2]; low dose regimen+SC, 2 of 8): 25%
patients with treatment-emergent AEs (TEAEs) ([2]; low dose regimen+SC, 7 of 8 patients): 88%
procalcitonin levels versus the standard of care ([2]; phase 2a study patients): did not increase
procalcitonin at discharge ([2]; second critically ill AP patient): 0.30 ng/mL
IL-6 at 120 hrs ([2]; second critically ill AP patient, IL-6 1021 pg/mL at study entry): 83 pg/mL
IC50 ([3]; Homo sapiens, PBMC, mean of replicates, read-out: Mean IC50, TNFα released from human PBMCs): 0.225 µM
IC50 ([3]; Homo sapiens, PBMC, single replicates, read-out: Replicate IC50 values, TNFα released from human PBMCs): 0.278 µM
IC50 ([3]; single replicates, read-out: Replicate IC50 values, TNFα released from human PBMCs): 0.173 µM
adverse effects on central nervous or respiratory systems [4]: no adverse effects
DNA reactivity, bone marrow micronucleus and liver Comet assays [5]: no evidence of DNA reactivity
lung myeloperoxidase; pancreas trypsin activity, myeloperoxidase activity and histopathological indices [6]: markedly reduced
IC50 ([7]; Homo sapiens, PBMC, mean of replicates, read-out: Mean IC50, IL-1β released from human PBMCs): 0.24 µM
IC50 ([7]; Homo sapiens, PBMC, single replicates, read-out: Replicate IC50 values, IL-1β released from human PBMCs): 0.264 µM
IC50 ([7]; single replicates, read-out: Replicate IC50 values, IL-1β released from human PBMCs): 0.217 µM
IC50 ([8]; Homo sapiens, PBMC, mean of replicates, read-out: Mean IC50, IL-6 released from human PBMCs): 0.135 µM
IC50 ([8]; Homo sapiens, PBMC, single replicates, read-out: Replicate IC50 values, IL-6 released from human PBMCs): 0.145 µM
IC50 ([8]; single replicates, read-out: Replicate IC50 values, IL-6 released from human PBMCs): 0.126 µM
effect of timing of administration on minimizing pancreatic injury ([9]; administered early in the course of disease, later administration retains effectiveness): may be more effective
lung myeloperoxidase; pancreas trypsin activity, myeloperoxidase activity and histopathological indices ([9]; mouse TLCS-induced and FAEE-induced pancreatitis, two IP doses): markedly reduced
inhibition at 2.08 mg/kg ([10]; Homo sapiens, at or near Cmax, single 2.08 mg/kg IV): ~57%
time over which the inhibitory effect dissipated ([10]; after Cmax): 1 to 2 days
recovery of IL-2 production ([10]; after the end of the infusion): 24 h
decrease of IL-2 production ([10]; at the end of the infusion): > 50%
onset of action, IL-2 release inhibition ([10]; peak at the end of a 4-hour infusion): rapid onset of action
